Experiments:
[1] = human gut metagenome, 24 h, 2 µM
[2] = human gut metagenome, 24 h, 2 µM; remark: listed apart in the source
[3] = (§1) The drug is tested on Z-008 corresponding to metagenome with ENA study accession number: PRJEB37062 and ENA sample accession number: ERS12561808 for biotransformation under anaerobic condition. The drug concentrations were measured over 9 timepoints collected between 0 and 24 hours of incubation by liquid-chromatography-coupled mass spectrometry (LC–MS); conditions: 2 µM
[4] = (§2) The drug is tested on WLS-039 corresponding to human gut metagenome with ENA study accession number: PRJEB37062 and ENA sample accession number: ERS12561746 for biotransformation under anaerobic condition. The drug concentrations were measured over 9 timepoints collected between 0 and 24 hours of incubation by liquid-chromatography-coupled mass spectrometry (LC–MS); conditions: 2 µM
[5] = as §1, with “Z-012” for “Z-008”, “ERS12561812” for “ERS12561808”; conditions: 2 µM
[6] = as §2, with “WLS-052” for “WLS-039”, “ERS12561747” for “ERS12561746”; conditions: 2 µM
[7] = as §2, with “WLS-010” for “WLS-039”, “ERS12561743” for “ERS12561746”; conditions: 2 µM
[8] = as §2, with “WLS-310” for “WLS-039”, “ERS12561785” for “ERS12561746”; conditions: 2 µM
[9] = human gut metagenome, 24 h, 2 µM; remark: listed apart in the source
[10] = human gut metagenome, 24 h, 2 µM; remark: listed apart in the source
[11] = as §2, with “Z-006” for “WLS-039”, “mouse” for “human”, “ERS12561806” for “ERS12561746”; conditions: 2 µM
[12] = as §2, with “Z-019” for “WLS-039”, “rat” for “human”, “ERS12561818” for “ERS12561746”; conditions: 2 µM
[13] = human gut metagenome, 24 h, 2 µM; remark: listed apart in the source
[14] = human gut metagenome, 24 h, 2 µM; remark: listed apart in the source
[15] = as §2, with “Z-002” for “WLS-039”, “rabbit” for “human”, “ERS12561802” for “ERS12561746”; conditions: 2 µM
[16] = as §2, with “WLS-098” for “WLS-039”, “ERS12561754” for “ERS12561746”; conditions: 2 µM
[17] = human gut metagenome, 24 h, 2 µM; remark: listed apart in the source
[18] = human gut metagenome, 24 h, 2 µM; remark: listed apart in the source
[19] = as §2, with “Z-014” for “WLS-039”, “rat” for “human”, “ERS12561814” for “ERS12561746”; conditions: 2 µM
[20] = as §2, with “WLS-170” for “WLS-039”, “ERS12561762” for “ERS12561746”; conditions: 2 µM
Further: call rule not given here.

| Compound | Bacterial Biotransformation [1] | Bacterial Biotransformation [2] | Bacterial Biotransformation [3] | Bacterial Biotransformation [4] | Bacterial Biotransformation [5] | Bacterial Biotransformation [6] | Bacterial Biotransformation [7] | Bacterial Biotransformation [8] | Bacterial Biotransformation [9] | Bacterial Biotransformation [10] | Bacterial Biotransformation [11] | Bacterial Biotransformation [12] | Bacterial Biotransformation [13] | Bacterial Biotransformation [14] | Bacterial Biotransformation [15] | Bacterial Biotransformation [16] | Bacterial Biotransformation [17] | Bacterial Biotransformation [18] | Bacterial Biotransformation [19] | Bacterial Biotransformation [20] |
| --- | --- | --- | --- | --- | --- | --- | --- | --- | --- | --- | --- | --- | --- | --- | --- | --- | --- | --- | --- | --- |
| CN(C)C(=O)Oc1cc(OC(=O)N(C)C)cc(C(O)CNC(C)(C)C)c1 (stereo not given) [BAMBUTEROL] | Compound NOT metabolized | Compound metabolized | Compound NOT metabolized | Compound NOT metabolized | Compound NOT metabolized | Compound NOT metabolized | Compound NOT metabolized | Compound metabolized | Compound NOT metabolized | Compound NOT metabolized | Compound NOT metabolized | Compound NOT metabolized | Compound metabolized | Compound metabolized | Compound metabolized | Compound metabolized | Compound NOT metabolized | Compound NOT metabolized | Compound NOT metabolized | Compound NOT metabolized |
| CCc1oc2ccccc2c1C(=O)c1cc(Br)c(O)c(Br)c1 [BENZBROMARONE] | Compound metabolized | Compound metabolized | Compound NOT metabolized | Compound metabolized | Compound NOT metabolized | Compound metabolized | Compound metabolized | Compound metabolized | Compound NOT metabolized | Compound metabolized | Compound NOT metabolized | Compound NOT metabolized | Compound metabolized | Compound metabolized | Compound metabolized | Compound metabolized | Compound metabolized | Compound NOT metabolized | Compound NOT metabolized | Compound metabolized |
| O=C1CC2(CCCC2)CC(=O)N1CCCCN1CCN(c2ncccn2)CC1 [BUSPIRONE] | Compound metabolized | Compound metabolized | Compound NOT metabolized | Compound NOT metabolized | Compound NOT metabolized | Compound NOT metabolized | Compound NOT metabolized | Compound metabolized | Compound NOT metabolized | Compound metabolized | Compound NOT metabolized | Compound NOT metabolized | Compound metabolized | Compound NOT metabolized | Compound metabolized | Compound metabolized | Compound NOT metabolized | Compound NOT metabolized | Compound NOT metabolized | Compound metabolized |
| CCCC(C)(COC(N)=O)COC(=O)NC(C)C (stereo not given) [CARISOPRODOL] | Compound metabolized | Compound NOT metabolized | Compound metabolized | Compound metabolized | Compound metabolized | Compound metabolized | Compound metabolized | Compound NOT metabolized | Compound NOT metabolized | Compound metabolized | Compound metabolized | Compound NOT metabolized | Compound NOT metabolized | Compound metabolized | Compound metabolized | Compound metabolized | Compound metabolized | Compound metabolized | Compound metabolized | Compound metabolized |
| COc1ccccc1OCCNCC(O)COc1cccc2[nH]c3ccccc3c12 (stereo not given) [CARVEDILOL] | Compound metabolized | Compound metabolized | Compound NOT metabolized | Compound metabolized | Compound NOT metabolized | Compound metabolized | Compound metabolized | Compound metabolized | Compound metabolized | Compound metabolized | Compound NOT metabolized | Compound NOT metabolized | Compound metabolized | Compound NOT metabolized | Compound NOT metabolized | Compound metabolized | Compound NOT metabolized | Compound NOT metabolized | Compound NOT metabolized | Compound metabolized |
| CC(C)(C)NCC(O)c1cc(Cl)c(N)c(Cl)c1 (stereo not given) [CLENBUTEROL] | Compound NOT metabolized | Compound NOT metabolized | Compound NOT metabolized | Compound NOT metabolized | Compound NOT metabolized | Compound NOT metabolized | Compound NOT metabolized | Compound NOT metabolized | Compound NOT metabolized | Compound NOT metabolized | Compound NOT metabolized | Compound NOT metabolized | Compound NOT metabolized | Compound NOT metabolized | Compound NOT metabolized | Compound NOT metabolized | Compound NOT metabolized | Compound NOT metabolized | Compound NOT metabolized | Compound NOT metabolized |
| C[N+]12CCC(CC1)C(OC(=O)C(O)(c1ccccc1)c1ccccc1)C2.[Br-] (stereo not given) [CLIDINIUM BROMIDE] | Compound NOT metabolized | Compound metabolized | Compound NOT metabolized | Compound metabolized | Compound NOT metabolized | Compound metabolized | Compound NOT metabolized | Compound NOT metabolized | Compound NOT metabolized | Compound NOT metabolized | Compound NOT metabolized | Compound NOT metabolized | Compound metabolized | Compound NOT metabolized | Compound NOT metabolized | Compound NOT metabolized | Compound metabolized | Compound NOT metabolized | Compound NOT metabolized | Compound metabolized |
| Clc1cccc(Cl)c1N=C1NCCN1 [CLONIDINE] | Compound metabolized | Compound metabolized | Compound NOT metabolized | Compound NOT metabolized | Compound metabolized | Compound NOT metabolized | Compound metabolized | Compound metabolized | Compound NOT metabolized | Compound metabolized | Compound NOT metabolized | Compound NOT metabolized | Compound metabolized | Compound NOT metabolized | Compound metabolized | Compound metabolized | Compound NOT metabolized | Compound NOT metabolized | Compound NOT metabolized | Compound metabolized |
